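Each compound was tested at five concentrations against cells in 96-well plates for 48 hours. Abbreviation: GI50, concentration required for 50% inhibition of growth. TGI marks complete inhibition of growth.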

Here are results for 24 compounds from PubChem BioAssay (NCI).

Among the test systems are DMS 114 small cell lung; MCF7 breast; SNB-78 CNS; BT-549 breast; T-47D breast; HS 578T breast; M19-MEL melanoma; MDA-N; RXF-631 renal.
Common to all, as to assay: NCI tumour cell line growth inhibition, 48 h

Consider `O=C(NC(Cc1ccccc1)C(=O)CCl)OCc1ccccc1` (stereo unspecified), for which the TGI came to 4.66 µM with DMS 114 small cell lung; 13.5 µM with MCF7 breast; 50 µM in the assay on SNB-78 CNS; 6 µM in the assay with BT-549 breast; 16.7 µM in the assay on T-47D breast; 36 µM with HS 578T breast. Further, the TGI in the assay on M19-MEL melanoma came to 27.3 µM. Moreover, the GI50 is 2.96 µM in the assay with MCF7 breast, 2.31 µM in the assay with BT-549 breast, 3.37 µM in the assay with T-47D breast and 6.23 µM in the assay with HS 578T breast.
As for `COc1ccc2c(c1)CC1N(C)CCC13CCCCC23` (stereo unspecified), the TGI with MCF7 breast, with MDA-N, with BT-549 breast, in the assay on T-47D breast and with HS 578T breast was > 100 µM each time.
As to `CC(O)c1ccc(C(O)/C(=N\NC(=O)c2ccncc2)c2nc3ccc([N+](=O)[O-])cc3[nH]c2=O)cc1` (stereo unspecified), the TGI with DMS 114 small cell lung was 98.2 µM; in the assay on SNB-78 CNS, > 100 µM; in the assay on RXF-631 renal it was > 100 µM; in the assay on M19-MEL melanoma, > 100 µM.
`COC(=O)[C@H](C)[C@@H]1CC[C@](C)(CCC2=C(C)CCCC2(C)C)OO1`: the TGI with MCF7 breast, in the assay with MDA-N, in the assay with BT-549 breast, in the assay with T-47D breast and in the assay with HS 578T breast was > 25 µM in each case.
Regarding `C=C(C)C1CCC2(C(=O)O)CCC3(C)C(CCC4C5(C)CCC(O)C(C)(C)C5CCC43C)C12` (stereo unspecified), the TGI in the assay with MCF7 breast was 47.7 µM; in the assay on MDA-N, 54.9 µM; in the assay on BT-549 breast it was 10.9 µM; with T-47D breast, 35.5 µM; in the assay on HS 578T breast it was 55.7 µM.
For the compound `C/C(CC(=O)Nc1cccc(C)c1C)=N\NC(N)=S`, the TGI in the assay on DMS 114 small cell lung, with SNB-78 CNS, in the assay with RXF-631 renal and in the assay with M19-MEL melanoma was > 100 µM in each case.
For `O=[P+](O)c1cccnc1`, the TGI with DMS 114 small cell lung, in the assay with SNB-78 CNS, with RXF-631 renal and with M19-MEL melanoma was > 100 µM each time.
With `C1=CC(=NN=P(c2ccccc2)(c2ccccc2)c2ccccc2)C=C1`, the TGI in the assay on DMS 114 small cell lung and in the assay with M19-MEL melanoma was > 100 µM each time.
With `COC(=O)Cc1nn2c(nc1=O)sc1ccc3ccccc3c12`, the TGI with RXF-631 renal and in the assay on M19-MEL melanoma was > 100 µM in each case.
On to `Cc1cc(C)c(C(=O)/C(=C/c2ccccc2)c2ccccc2)c(C)c1`, for which the TGI in the assay on DMS 114 small cell lung, with RXF-631 renal and in the assay on M19-MEL melanoma was > 100 µM throughout.
As for `Cc1ccc(S(=O)(=O)OC2CSSCC2OS(=O)(=O)c2ccc(C)cc2)cc1` (stereo unspecified), the TGI stood at 26.4 µM in the assay on DMS 114 small cell lung, 37 µM in the assay with SNB-78 CNS, 26.5 µM in the assay on RXF-631 renal and 26.3 µM with M19-MEL melanoma.
`Cc1cc2c(C)nn(Cc3ccccc3Cl)c2c(C#N)c1C`: the TGI with RXF-631 renal and with M19-MEL melanoma was > 100 µM in each case.
Turning to `CSc1nc(SC)c2c(C)cn(C3OC(C)C(O)C(O)C3O)c2n1` (stereo unspecified), the TGI was > 100 µM in the assay on MCF7 breast; > 100 µM in the assay on MDA-N; > 100 µM in the assay on BT-549 breast; 84.7 µM with T-47D breast; > 100 µM in the assay with HS 578T breast.
Turning to `CCOC(=O)Cn1c(=O)[nH]c(=O)c2[nH]cnc21`, the TGI in the assay on DMS 114 small cell lung, in the assay with SNB-78 CNS, in the assay on RXF-631 renal and in the assay on M19-MEL melanoma was > 100 µM throughout.
For the compound `O=C1NC(Cc2ccccc2)C(=O)N2CCCC12` (stereo unspecified), the TGI with DMS 114 small cell lung, in the assay with SNB-78 CNS and with M19-MEL melanoma was > 100 µM in each case.
For `COc1cc([C@@H]2c3cc4c(cc3[C@@H](NC(=O)c3ccc(OC(C)=O)cc3)C3COC(=O)[C@@H]32)OCO4)cc(OC)c1O` (stereo partly specified), the TGI is 5.38 µM in the assay on DMS 114 small cell lung, > 100 µM with SNB-78 CNS, 17.3 µM in the assay on RXF-631 renal and 40.1 µM in the assay with M19-MEL melanoma.
Consider `O=C(CC1(O)C(=O)Nc2ccc([N+](=O)[O-])cc21)c1ccc(Br)cc1` (stereo unspecified), for which the TGI was > 100 µM in the assay with DMS 114 small cell lung, > 100 µM in the assay on SNB-78 CNS and 69 µM with M19-MEL melanoma.
With `O=C(O)C1C2CCC(O2)C1C(=O)NCc1cccnc1` (stereo unspecified), the TGI in the assay with MCF7 breast, in the assay on MDA-N, in the assay with BT-549 breast, with T-47D breast and with HS 578T breast was > 100 µM throughout.
Consider `COc1ccc(NC(=O)C2=CC(=O)c3ccc(O)cc3C2=O)c(OC)c1`, for which the TGI in the assay with DMS 114 small cell lung, in the assay with SNB-78 CNS, with RXF-631 renal and with M19-MEL melanoma was > 100 µM throughout.
As for `C/C(CC(=O)Nc1ccc([N+](=O)[O-])cc1)=N\Nc1ccc([N+](=O)[O-])cc1[N+](=O)[O-]`, the TGI with DMS 114 small cell lung, in the assay on SNB-78 CNS, with RXF-631 renal and in the assay with M19-MEL melanoma was > 100 µM in each case.
The compound `O=C(O)CCCc1cc2c(s1)-c1cccc3cccc-2c13` registered a TGI in the assay on SNB-78 CNS of 94.9 µM.
For the compound `CN(CCCCN)c1ccc2c(=O)[nH][nH]c(=O)c2c1`, the TGI in the assay with DMS 114 small cell lung was > 100 µM; in the assay on SNB-78 CNS it was > 100 µM; in the assay with M19-MEL melanoma, > 37 µM.
Consider `C1C[S][Ge]2([S]CCS1)[S]CCSCC[S]2`, for which the GI50 in the assay with DMS 114 small cell lung, in the assay on SNB-78 CNS and with M19-MEL melanoma was > 100 µM throughout. The TGI in the assay with DMS 114 small cell lung, with SNB-78 CNS and in the assay with M19-MEL melanoma was > 100 µM each time.
For the compound `COc1cc(=O)oc(/C=C/CO)c1C`, the TGI with DMS 114 small cell lung, with RXF-631 renal and in the assay on M19-MEL melanoma was > 100 µM in each case.
